MIC and IC50 data for four molecules are collected here from US20120022107A1, “2-(PIPERIDIN-1-YL)-4-AZOLYL-THIAZOLE-5-CARBOXYLIC ACID DERIVATIVES AGAINST BACTERIAL INFECTIONS” (ASTRAZENECA AB, priority 2008, published 2012).

SMILES strings stand for the structures. ≈ marks a conversion by molar mass, not a printed value.

Experiment [1] relates to Hinf. In words: Hinf MIC. It counts as cell-based, Haemophilus influenzae. The following applies: Haemophilus influenzae; read-out: Hinf_MIC.
Experiment [2] concerns Spn. In words: Spn MIC. The format is cell-based, Streptococcus pneumoniae. The following applies: Streptococcus pneumoniae; read-out: Spn_MIC.
In experiment [3] the test system is M. tuberculosis. Briefly: MIC testing: Microplate Alamar Blue Assay. The format is cell-based, Mycobacterium tuberculosis. The following applies: Mycobacterium tuberculosis, lowest concentration preventing color change from blue to pink, read-out: Mtu MIC.
The test system of experiment [4] is Sau. In words: Sau MIC. The following applies: Staphylococcus aureus; read-out: Sau_MIC. It counts as cell-based, Staphylococcus aureus.
For experiment [5], the target named is Msmeg (Mycolicibacterium smegmatis, UniProt A0QNE0). Briefly: Msmeg IC50. It counts as biochemical.
Chain of Msmeg (A0QNE0 whole entry): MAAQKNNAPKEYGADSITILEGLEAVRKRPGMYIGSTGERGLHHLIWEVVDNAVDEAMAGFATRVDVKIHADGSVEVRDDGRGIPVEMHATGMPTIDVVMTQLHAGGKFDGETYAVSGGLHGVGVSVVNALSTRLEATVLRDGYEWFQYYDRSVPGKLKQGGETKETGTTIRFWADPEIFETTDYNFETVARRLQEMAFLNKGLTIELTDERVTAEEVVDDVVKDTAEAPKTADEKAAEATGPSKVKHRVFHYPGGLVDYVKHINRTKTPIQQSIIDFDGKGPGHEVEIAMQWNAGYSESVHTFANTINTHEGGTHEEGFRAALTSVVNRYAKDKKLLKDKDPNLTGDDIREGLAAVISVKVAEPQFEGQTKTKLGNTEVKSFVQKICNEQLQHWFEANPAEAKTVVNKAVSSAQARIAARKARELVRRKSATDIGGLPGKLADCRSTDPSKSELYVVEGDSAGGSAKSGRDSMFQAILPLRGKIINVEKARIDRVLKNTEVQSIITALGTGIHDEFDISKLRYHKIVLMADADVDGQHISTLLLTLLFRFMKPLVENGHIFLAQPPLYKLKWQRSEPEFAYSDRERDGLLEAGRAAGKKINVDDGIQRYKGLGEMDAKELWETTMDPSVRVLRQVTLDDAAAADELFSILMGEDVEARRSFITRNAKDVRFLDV

As usually defined, the IC50 is the concentration that gives 50% inhibition. Lower therefore signals greater potency in that assay. On to `CO[C@H]1CN(c2nc(-c3ncnn3CC3CC3)c(C(=O)O)s2)CC[C@H]1NC(=O)c1[nH]c(C)c(Cl)c1Br` [Example 16, 2-((3S,4R)-4-(3-bromo-4-chloro-5-methyl-1H-pyrrole-2-carboxamido)-3-methoxypiperidin-1-yl)-4-(1-(cyclopropylmethyl)-1H-1,2,4-triazole-5-yl) thiazole-5-carboxylic acid], for which the MIC turned out to be 0.25 µg/mL (≈ 0.417 µM) in experiment [1], 0.25 µg/mL (≈ 0.417 µM) in experiment [2], 0.03 µg/mL (≈ 0.0501 µM) in experiment [3] and 8 µg/mL (≈ 13.4 µM) in experiment [4]. In experiment [5], the 50% inhibitory concentration (IC50) is < 2.5 nM.
Consider `CO[C@H]1CN(c2nc(-c3ncnn3CC3CC3)c(C(=O)O)s2)CC[C@H]1NC(=O)c1[nH]c(C)c(Br)c1Cl` [Example 18, 2-((3S,4R)-4-(4-bromo-3-chloro-5-methyl-1H-pyrrole-2-carboxamido)-3-methoxypiperidin-1-yl)-4-(1-(cyclopropylmethyl)-1H-1,2,4-triazol-5-yl) thiazole-5-carboxylic acid], for which the MIC in experiment [1] stood at 0.5 µg/mL (≈ 0.835 µM); in experiment [2], 0.25 µg/mL (≈ 0.417 µM); in experiment [3], 0.06 µg/mL (≈ 0.1 µM); in experiment [4], 0.125 µg/mL (≈ 0.209 µM). This molecule also yielded an IC50 in experiment [5] of 4 nM.
As to `COCCn1ncnc1-c1nc(N2CC[C@@H](NC(=O)c3[nH]c(C)c(Cl)c3Br)[C@@H](OC)C2)sc1C(=O)O` [Example 19, 2-((3S,4R)-4-(3-bromo-4-chloro-5-methyl-1H-pyrrole-2-carboxamido)-3-methoxypiperidin-1-yl)-4-(1-(2-methoxyethyl)-1H-1,2,4-triazol-5-yl) thiazole-5-carboxylic acid], the MIC in experiment [1] is 0.25 µg/mL (≈ 0.415 µM); in experiment [2], 0.125 µg/mL (≈ 0.207 µM); in experiment [3], 0.03 µg/mL (≈ 0.0498 µM); in experiment [4], 0.125 µg/mL (≈ 0.207 µM). For the same molecule, the IC50 in experiment [5] is < 2.5 nM.
As for `COCCn1ncnc1-c1nc(N2CC[C@@H](NC(=O)c3[nH]c(C)c(Cl)c3Br)[C@@H](F)C2)sc1C(=O)O` [Example 20, 2-((3S,4R)-4-(3-bromo-4-chloro-5-methyl-1H-pyrrole-2-carboxamido)-3-fluoropiperidin-1-yl)-4-(1-(2-methoxyethyl)-1H-1,2,4-triazol-5-yl) thiazole-5-carboxylic acid], the MIC in experiment [1], in experiment [2], in experiment [3] and in experiment [4] was 0.125 µg/mL (≈ 0.212 µM) each time. Besides, the midpoint of inhibition in experiment [5], the IC50, lay at 4 nM.
